In paper PMC9320513, “Peptide-Mediated Targeted Delivery of Aloe-Emodin as Anticancer Drug” (Molecules, 2022):
Where a SMILES comes first, the peptide text is derived from it. The star is where a group is joined. X1 = O=C(CCCC(=O)*)OCc1cc(O)c2c(c1)C(=O)c1cccc(O)c1C2=O

Key:
[1] = tested on: NK-92 cells; experiment: Growth inhibition of NK92 cells, WST-8 assay; details: 20, 10, 5 and 1 µM, 24, 48 and 72 h, WST-8, two independent experiments
Description: NK-92 cell lines in exponential phase of growth were collected, extensively washed with warm RPMI-1640, and seeded (in triplicate) in 96-well microtiter Costar plates (Costar, Rochester, NY, USA) at a density of 5 × 10^3 cells/mL. The cells were cultured in BM containing recombinant IL-2(100 IU/mL). In the growth inhibition assays, NK92 cells were maintained for 24, 48, and 72 h at 37 °C alone or in the presence of 20, 10, 5, and 1 µM of Aloe-emodin, glutaryl derivatives of AE and AE-CPP-LTV (6). For all above-described experiments, cell survival was determined by WST-8 assay (Orangu™ Cell Counting SolutionWST-8 cell proliferation kit (Aurogene, Rome, Italy), after 24, 48, and 72 h treatment at 37 °C in 5% CO2. Cells were treated with different compounds/absorbance values of control (cells incubated with vehicle alone) cells * 100%. Statistical analysis was performed by the Student’s t-test (2-tailed) to assess differences between means of data analyzed. The p-values are indicated in the figure legends. The statistical analysis of differences was performed with GraphPad Prism 8.

[2] = tested on: SKBR3 cells; experiment: MTT cell viability assay in SKBR3 cells; assay type: cell-based, Human
Description: (§1) The compounds (2), (3), and (6), were evaluated for cell viability effects using the MTT assay on SKBR3 and A549 cells at 24, 48, and 72 h at different concentrations. Cell lines were seeded into 96-well microtiter plates (Corning, Inc., Corning, NY, USA) at a density of 1 × 10^4 cells/well. After 24 h, cells were exposed to increased concentrations of compounds (previously prepared in PBS to obtain a stock solution of 1 mM) in cell culture medium. After an incubation time of 24, 48, and 72 h, media were removed and MTT (Sigma, Deisenhofen, Germany) diluted in culture media was added to each well at 0.5 mg/mL. Plates were incubated for 2 h at 37 °C in 5% CO2 incubator; unreacted dye was removed, and cells were solubilized in DMSO (Merck, Darmstadt, Germany). Absorbance was read at 570 nm by an ELISA plate reader (Biorad). Data were expressed as cell metabolic activity, which was calculated as the absorbance value of cells treated with different compounds/absorbance value of control (cells incubated with vehicle alone) cells * 100%. All experiments were performed in triplicate, and all data were expressed as the mean ± standard deviation. One-way ANOVA with Dunnett’s multiple comparisons test was performed with respect to the controls (**** p < 0.0001).

[3] = tested on: NK92 cells killing K562 target cells; experiment: NK92 cell-mediated cytotoxicity against K562 cells, LDH release; assay type: cell-based, Human; details: NK92 treated 48 h with 5 to 20 μM, E:T ratio 10:1, 4 h with K562, LDH release, 4 independent experiments
Description: To determine NK-92’s cell cytotoxicity, CytoTox 96 non-radioactive cytotoxicity assay (Promega, Madison, WI) was used, based on the colorimetric detection of the released enzyme LDH. NK-92 cells were harvested, washed, counted, and diluted at the concentration of 1 × 10^6 cells/mL in BM with 10% FCS and 100 μ/mL of IL-2. […] Target cells were harvested, washed, resuspended to 1 × 10^5 cells/mL in BM, added, and incubated with effector cells for 4 h at 37 °C employing incresingincreasing effector/target cell ratio ranging from 0.625:1 to 10:1 in triplicate. A total of 50 μL of supernatants were assayed for LDH activity according to the manufacturer’s instruction. Controls for spontaneous and maximum LDH release in effector and target cells were also assayed. The calculation of cytotoxicity percentage was as follows: (Experimental—Effector Spontaneous—Target spontaneous)/(Target Maximum—Target Spontaneous) × 100. Data are expressed as mean ± standard deviation from 4 independent experiments. […] The statistical analysis was performed with GraphPad Prism 8.

[4] = tested on: A549 cells; experiment: MTT cell viability assay in A549 cells; assay type: cell-based, Human
Description: as §1

[5] = tested on: NK-92 cells; experiment: Apoptosis in NK-92 cells, Annexin V-FITC flow cytometry; assay type: cell-based, Human; details: 48 h
Description: (§2) Apoptosis was quantified using FITC-conjugated annexin V (AV) according to the manufacturer’s protocol (Marine Biological Laboratory, Woods Hole, MA, USA). Annexin V-FITC staining in NK-92 cell lines was determined after 48 h in the absence or presence of different amounts of Aloe-emodin (9 mM stock solution in DMSO) ranging from 6.25 to 50 μM. Proliferation was evaluated by measuring Ki-67 nuclear antigen expression using FITC-labeled anti-human Ki-67 mAb according to the manufacturer’s protocol (BD Biosciences, San Jose, CA, USA). Acquisition was performed on a FACSCalibur flow cytometer (BD Biosciences) and at least 10,000 events per sample were run. Data were analyzed using the Cell Quest Pro software (BD Biosciences) and expressed as mean ± standard deviation from 2 independent experiments.

[6] = tested on: NK-92 cells; experiment: Proliferation of NK-92 cells, Ki-67 flow cytometry; assay type: cell-based, Human; details: 48 h, all concentrations except 50 μM
Description: as §2

| Compound | growth inhibition of NK-92 cells [1] | comparative cell viability reduction (3 versus AE (2); 6 versus 3 at 20 μM) [2] | concentration at which effect on cell viability is already seen [2] | NK92-mediated cytotoxicity against K562 compared with untreated NK92 cells [3] | comparative cell viability reduction (3 versus AE (2); 6 versus 3 at 20 μM) [4] | concentration at which effect on cell viability is already seen [4] | effect on NK-92 cells at the higher dose ([5]; 50 μM) | apoptosis of NK-92 cells ([5]; 6.25 to 50 μM, all concentrations except 50 μM, Annexin V-FITC) | proliferation of NK-92 cells [6] |
| --- | --- | --- | --- | --- | --- | --- | --- | --- | --- |
| O=C(O)CCCC(=O)OCc1cc(O)c2c(c1)C(=O)c1cccc(O)c1C2=O [compound 3, 5-((4,5-dihydroxy-9,10-dioxo-9,10-dihydroanthracen-2-yl)methoxy)-5-oxopentanoic acid] | did not induce growth inhibition | more effective | effective already at 5 µM | less NK92-mediated cytotoxicity than the control sample | more effective | effective already at 5 µM |  |  |  |
| O=C1c2cccc(O)c2C(=O)c2c(O)cc(CO)cc21 [compound 2, 8-dihydroxy-3-hydroxymethyl-anthraquinone] |  |  |  |  |  |  | cytotoxic effect | neither AE (2) induced apoptosis or affected proliferation | neither AE (2) induced apoptosis or affected proliferation |
| CC(C)C[C@H](NC(=O)CNC(=O)[C@@H]1CCCN1C(=O)CNC(=O)[C@@H](NC(=O)[C@H](CCCCN)NC(=O)[C@H](CCCNC(=N)N)NC(=O)[C@H](CCCCN)NC(=O)[C@H](CCCCN)NC(=O)[C@H](CCCCN)NC(=O)[C@@H]1CCCN1C(=O)CCCC(=O)OCc1cc(O)c2c(c1)C(=O)c1cccc(O)c1C2=O)C(C)C)C(=O)N[C@H](C(=O)N[C@H](C(=O)N[C@@H](CO)C(=O)N1CCC[C@H]1C(=O)N[C@@H](Cc1c[nH]c2ccccc12)C(=O)N[C@@H](Cc1ccc(O)cc1)C(=O)O)C(C)C)[C@@H](C)O [compound 6] (X1-PKKKRKVGPGLTVSPWY-OH) | did not induce growth inhibition |  |  |  |  |  |  |  |  |
